Measured values as given in patent US12521393B2, “Cytotoxicity targeting chimeras for CCR2-expressing cells” (GLAXOSMITHKLINE INTELLECTUAL PROPERTY DEVELOPMENT LIMITED, priority 2021, dated 2026).

Assays:
[1] = test system: CCR2 expressing cells (CD11b+Ly6c+Hi) in peripheral blood; test: In vivo depletion assay, flow cytometry of peripheral blood (Example 201); design: species or system human CCR2 knock-in mice (C57 background); conditions: hCCR2 knock-in mice, IV 0.1 mpk compound + 10 mpk anti-cotinine antibody (SEQ ID NO: 13/14), peripheral blood at 48 hr
In short: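 Flow cytometry of blood collected at study termination quantified percent depletion of CD11b+Ly6c+Hi cells and CCR2 expression, using surface markers CD45, CD3, CD11b, Ly6C, human CCR2 after Fc block, with 7AAD viability stain. Compound given in saline:DMSO:PBS formulation, optionally combined with anti-cotinine antibody, incubated 30 min before administration.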

[2] = target: anti-cotinine antibody (SEQ ID NO: 11/12, rabbit variable region with human IgG1 Fc DE mutation); test: SPR binding of anti-cotinine antibody to ARM compounds, Biacore T200, 37° C. (Example 202); conditions: SPR Biacore T200, 37° C., pH 7.4, antibody SEQ ID NO: 11/12 captured on protein A; Kd in molar
In short: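 Run at 37 °C in 10 mM HEPES pH 7.4, 150 mM NaCl, 0.005% P20, 1% DMSO, with compounds titrated from 200 nM (five 3-fold steps) over protein A–captured antibody. A 1:1 kinetic model on double-referenced data gave rate constants, Kd as koff/kon and residence time 1/koff; results as pKd, run-averaged.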

SMILES	% Depletion of CCR2 expressing cells [1] [%]	pKd of Antibody for ARM Compound of Formula (I) [2]
CCN1C(=O)C[C@H](C(=O)NCCOCCOCCOCCC(=O)N[C@H]2CC[C@@H](C(=O)N[C@@H]3C[C@H](NC(C)(C)C)CC[C@@H]3N3CC[C@H](Nc4ncnc5ccc(C(F)(F)F)cc45)C3=O)CC2)[C@H]1c1cccnc1 [Example 35, (2S,3S)-N-(2-(2-(2-(3-(((1S,4s)-4-(((1R,2S,5R)-5-(tert-butylamino)-2-((S)-2-oxo-3-((6-(trifluoromethyl)quinazolin-4-yl)amino)pyrrolidin-1-yl)cyclohexyl)carbamoyl)cyclohexyl)amino)-3-oxopropoxy)ethoxy)ethoxy)ethyl)-1-ethyl-5-oxo-2-(pyridin-3-yl)pyrrolidine-3-carboxamide]	88.81	9.785
CC(C)N(C)[C@@H]1CC[C@H](N2CC[C@H](Nc3ncnc4ccc(C(F)(F)F)cc34)C2=O)[C@H](NC(=O)C2CCC(NC(=O)CCOCCNC(=O)CCOCCNC(=O)[C@H]3CC(=O)N(C)[C@@H]3c3cccnc3)CC2)C1 (stereo partly drawn) [Example 48, (2S,3S)-N-(2-(3-((2-(3-(((1R,4r)-4-(((1R,2S,5R)-5-(Isopropyl(methyl)amino)-2-((S)-2-oxo-3-((6-(trifluoromethyl)quinazolin-4-yl)amino)pyrrolidin-1-yl)cyclohexyl)carbamoyl)cyclohexyl)amino)-3-oxopropoxy)ethyl)amino)-3-oxopropoxy)ethyl)-1-methyl-5-oxo-2-(pyridin-3-yl)pyrrolidine-3-carboxamide]	89	8.975
CC(C)N(C)[C@@H]1CC[C@H](N2CC[C@H](Nc3ncnc4ccc(C(F)(F)F)cc34)C2=O)[C@H](NC(=O)[C@H]2C[C@@H](NC(=O)CCOCCOCCNC(=O)CCNC(=O)[C@H]3CC(=O)N(C)[C@@H]3c3cccnc3)C2)C1 [Example 49, (2S,3S)-N-(3-((2-(2-(3-(((1S,3s)-3-(((1R,2S,5R)-5-(Isopropyl(methyl)amino)-2-((S)-2-oxo-3-((6-(trifluoromethyl)quinazolin-4-yl)amino)pyrrolidin-1-yl)cyclohexyl)carbamoyl)cyclobutyl)amino)-3-oxopropoxy)ethoxy)ethyl)amino)-3-oxopropyl)-1-methyl-5-oxo-2-(pyridin-3-yl)pyrrolidine-3-carboxamide]	85.84	9.191
CC(C)N(C)[C@@H]1CC[C@H](N2CC[C@H](Nc3ncnc4ccc(C(F)(F)F)cc34)C2=O)[C@H](NC(=O)[C@H]2CC[C@@H](NC(=O)CCCO[C@H]3CC[C@H](NC(=O)CCNC(=O)[C@@H]4CC(=O)N(C)[C@H]4c4cccnc4)CC3)CC2)C1 [Example 52, (2S,3S)-N-(3-(((1R,4S)-4-(4-(((1S,4S)-4-(((1R,2S,5R)-5-(Isopropyl(methyl)amino)-2-((S)-2-oxo-3-((6-(trifluoromethyl)quinazolin-4-yl)amino)pyrrolidin-1-yl)cyclohexyl)carbamoyl)cyclohexyl)amino)-4-oxobutoxy)cyclohexyl)amino)-3-oxopropyl)-1-methyl-5-oxo-2-(pyridin-3-yl)pyrrolidine-3-carboxamide]	79.18	9.2545
CC(C)N(C)[C@@H]1CC[C@H](N2CC[C@H](Nc3ncnc4ccc(C(F)(F)F)cc34)C2=O)[C@H](NC(=O)[C@H]2CC[C@H](NC(=O)CCOC[C@H]3CC[C@H](COCCNC(=O)[C@H]4CC(=O)N(C)[C@@H]4c4cccnc4)CC3)CC2)C1 [Example 53, (2S,3S)-N-(2-(((1R,4S)-4-((3-(((1R,4R)-4-(((1R,2S,5R)-5-(Isopropyl(methyl)amino)-2-((S)-2-oxo-3-((6-(trifluoromethyl)quinazolin-4-yl)amino)pyrrolidin-1-yl)cyclohexyl)carbamoyl)cyclohexyl)amino)-3-oxopropoxy)methyl)cyclohexyl)methoxy)ethyl)-1-methyl-5-oxo-2-(pyridin-3-yl)pyrrolidine-3-carboxamide]	68.42	9.531
CC(C)N(C)[C@@H]1CC[C@H](N2CC[C@H](Nc3ncnc4ccc(C(F)(F)F)cc34)C2=O)[C@H](NC(=O)[C@H]2CC[C@H](NC(=O)CCCOC[C@H]3CC[C@@H](COCCNC(=O)[C@H]4CC(=O)N(C)[C@@H]4c4cccnc4)CC3)CC2)C1 [Example 57, (2S,3S)-N-(2-(((1S,4R)-4-((4-(((1R,4R)-4-(((1R,2S,5R)-5-(Isopropyl(methyl)amino)-2-((S)-2-oxo-3-((6-(trifluoromethyl)quinazolin-4-yl)amino)pyrrolidin-1-yl)cyclohexyl)carbamoyl)cyclohexyl)amino)-4-oxobutoxy)methyl)cyclohexyl)methoxy)ethyl)-1-methyl-5-oxo-2-(pyridin-3-yl)pyrrolidine-3-carboxamide]	77	9.685
CC(C)N(C)[C@@H]1CC[C@H](N2CC[C@H](Nc3ncnc4ccc(C(F)(F)F)cc34)C2=O)[C@H](NC(=O)[C@H]2CC[C@@H](CC(=O)CCCOC[C@H]3CC[C@H](COCCNC(=O)[C@H]4CC(=O)N(C)[C@@H]4c4cccnc4)CC3)CC2)C1 [Example 60, (2S,3S)-N-(2-(((1R,4S)-4-(((5-((1S,4S)-4-(((1R,2S,5R)-5-(Isopropyl(methyl)amino)-2-((S)-2-oxo-3-((6-(trifluoromethyl)quinazolin-4-yl)amino)pyrrolidin-1-yl)cyclohexyl)carbamoyl)cyclohexyl)-4-oxopentyl)oxy)methyl)cyclohexyl)methoxy)ethyl)-1-methyl-5-oxo-2-(pyridin-3-yl)pyrrolidine-3-carboxamide]	90	9.4635
CC(C)N(C)[C@@H]1CC[C@H](N2CC[C@H](Nc3ncnc4ccc(C(F)(F)F)cc34)C2=O)[C@H](NC(=O)CCNC(=O)CCCOC[C@H]2CC[C@@H](COCCNC(=O)[C@H]3CC(=O)N(C)[C@@H]3c3cccnc3)CC2)C1 [Example 62, (2S,3S)-N-(2-(((1S,4R)-4-((4-((3-(((1R,2S,5R)-5-(Isopropyl(methyl)amino)-2-((S)-2-oxo-3-((6-(trifluoromethyl)quinazolin-4-yl)amino)pyrrrolidin-1-yl)cyclohexyl)amino)-3-oxopropyl)amino)-4-oxobutoxy)methyl)cyclohexyl)methoxy)ethyl)-1-methyl-5-oxo-2-(pyridin-3-yl)pyrrolidine-3-carboxamide]	56	9.6305
CC(C)N(C)[C@@H]1CC[C@H](N2CC[C@H](Nc3ncnc4ccc(C(F)(F)F)cc34)C2=O)[C@H](NC(=O)[C@H]2CC[C@@H](NC(=O)CCOCCOCCNC(=O)CNC(=O)[C@H]3CC(=O)N(C)[C@@H]3c3cccnc3)CC2)C1 [Example 63, (2S,3S)-N-(2-((2-(2-(3-(((1S,4s)-4-(((1R,2S,5R)-5-(Isopropyl(methyl)amino)-2-((S)-2-oxo-3-((6-(trifluoromethyl)quinazolin-4-yl)amino)pyrrolidin-1-yl)cyclohexyl)carbamoyl)cyclohexyl)amino)-3-oxopropoxy)ethoxy)ethyl)amino)-2-oxoethyl)-1-methyl-5-oxo-2-(pyridin-3-yl)pyrrolidine-3-carboxamide]	82	8.674
